Columns and labels:
c-Met (h) = biological target: T1, c-Met (h) (Homo sapiens, UniProt P08581); assay: c-Met (h) kinase assay; assay type: biochemical
T1 construct: purchased Millipore UK Ltd
Method: Kinase assays can be performed by measurement of incorporation of γ-^33P ATP into immobilized myelin basic protein (MBP). High binding white 384 well plates (Greiner) are coated with MBP (Sigma #M-1891) by incubation of 60 μL/well of 20 μg/mL MBP in Tris-buffered saline (TBS; 50 mM Tris pH 8.0, 138 mM NaCl, 2.7 mM KCl) for 24 h at 4° C. Plates are washed 3× with 100 μL TBS. Kinase reactions are carried out in a total volume of 34 μL in kinase buffer (5 mM Hepes pH 7.6, 15 mM NaCl, 0.01% bovine gamma globulin (Sigma #I-5506), 10 mM MgCl2, 1 mM DTT, 0.02% TritonX-100). Compound dilutions are performed in DMSO and added to assay wells to a final DMSO concentration of 1%. Each data point is measured in duplicate, and at least two duplicate assays are performed for each individual compound determination. Enzyme is added to final concentrations of 10 nM or 20 nM, for example. A mixture of unlabeled ATP and γ-^33P ATP is added to start the reaction (2×10^6 cpm of γ-^33P ATP per well (3000 Ci/mmole) and 10 μM unlabeled ATP, typically. The reactions are carried out for 1 h at room temperature with shaking. Plates are washed 7× with TBS, followed by the addition of 50 μL/well scintillation fluid (Wallac). Plates are read using a Wallac Trilux counter. This is only one format of such assays; various other formats are possible, as known to one skilled in the art.
(§1) The above assay procedure can be used to determine the IC50 for inhibition and/or the inhibition constant, Ki. The IC50 is defined as the concentration of compound required to reduce the enzyme activity by 50% under the condition of the assay. The IC50 value is estimated by preparing a 10 point curve using a 1/2 log dilution series (for example, a typical curve may be prepared using the following compound concentrations: 10 μM, 3 μM, 1 μM, 0.3 μM, 0.1 μM, 0.03 μM, 0.01 μM, 0.003 μM, 0.001 μM and 0 μM).
(§2) Met (h) is incubated with 8 mM MOPS pH 7.0, 0.2 mM EDTA, 250 μM KKKSPGEYVNIEFG, 10 mM MgAcetate and [γ-^33P-ATP] (specific activity approx. 500 cpm/pmol, concentration as required). The reaction is initiated by the addition of the MgATP mix. After incubation for 40 minutes at room temperature, the reaction is stopped by the addition of 3% phosphoric acid solution. 10 μL of the reaction is then spotted onto a P30 filtermat and washed three times for 5 minutes in 75 mM phosphoric acid and once in methanol prior to drying and scintillation counting.
(§3) The kinase assays described herein were performed at Millipore UK Ltd, Dundee Technology Park, Dundee DD2 1SW, UK.

Axl (h) = biological target: T2, Axl (h) (Homo sapiens, UniProt P30530); assay: Axl (h) kinase assay; assay type: biochemical
T2 construct: purchased Millipore UK Ltd
T2 sequence (P30530 26-894): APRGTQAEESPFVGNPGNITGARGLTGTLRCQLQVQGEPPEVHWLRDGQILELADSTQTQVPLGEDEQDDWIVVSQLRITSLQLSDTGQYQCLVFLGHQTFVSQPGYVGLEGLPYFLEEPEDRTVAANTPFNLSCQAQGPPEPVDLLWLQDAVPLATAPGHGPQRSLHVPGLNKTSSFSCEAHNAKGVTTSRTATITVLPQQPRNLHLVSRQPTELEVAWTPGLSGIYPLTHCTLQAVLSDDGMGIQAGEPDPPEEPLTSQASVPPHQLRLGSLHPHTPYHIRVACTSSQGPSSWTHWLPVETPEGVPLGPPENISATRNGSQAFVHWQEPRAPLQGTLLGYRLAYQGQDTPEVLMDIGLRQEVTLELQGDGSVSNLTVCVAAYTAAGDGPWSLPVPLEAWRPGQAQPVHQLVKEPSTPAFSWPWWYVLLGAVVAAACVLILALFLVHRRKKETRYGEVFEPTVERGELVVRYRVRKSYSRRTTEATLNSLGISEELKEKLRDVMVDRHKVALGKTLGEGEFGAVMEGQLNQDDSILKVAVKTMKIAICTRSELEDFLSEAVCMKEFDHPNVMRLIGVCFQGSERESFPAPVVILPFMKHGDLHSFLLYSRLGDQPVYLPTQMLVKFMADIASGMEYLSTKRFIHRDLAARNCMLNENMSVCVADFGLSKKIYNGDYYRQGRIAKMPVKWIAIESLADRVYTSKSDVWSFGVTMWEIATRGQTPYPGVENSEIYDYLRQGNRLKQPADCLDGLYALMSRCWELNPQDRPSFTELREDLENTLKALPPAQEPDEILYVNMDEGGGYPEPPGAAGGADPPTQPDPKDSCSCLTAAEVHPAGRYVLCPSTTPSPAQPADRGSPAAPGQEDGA
Method: as §1
as §2, with “Axl” for “Met”, “KKSRGDYMTMQIG,” for “KKKSPGEYVNIEFG,”
as §3

T1 sequence (P08581 25-1390): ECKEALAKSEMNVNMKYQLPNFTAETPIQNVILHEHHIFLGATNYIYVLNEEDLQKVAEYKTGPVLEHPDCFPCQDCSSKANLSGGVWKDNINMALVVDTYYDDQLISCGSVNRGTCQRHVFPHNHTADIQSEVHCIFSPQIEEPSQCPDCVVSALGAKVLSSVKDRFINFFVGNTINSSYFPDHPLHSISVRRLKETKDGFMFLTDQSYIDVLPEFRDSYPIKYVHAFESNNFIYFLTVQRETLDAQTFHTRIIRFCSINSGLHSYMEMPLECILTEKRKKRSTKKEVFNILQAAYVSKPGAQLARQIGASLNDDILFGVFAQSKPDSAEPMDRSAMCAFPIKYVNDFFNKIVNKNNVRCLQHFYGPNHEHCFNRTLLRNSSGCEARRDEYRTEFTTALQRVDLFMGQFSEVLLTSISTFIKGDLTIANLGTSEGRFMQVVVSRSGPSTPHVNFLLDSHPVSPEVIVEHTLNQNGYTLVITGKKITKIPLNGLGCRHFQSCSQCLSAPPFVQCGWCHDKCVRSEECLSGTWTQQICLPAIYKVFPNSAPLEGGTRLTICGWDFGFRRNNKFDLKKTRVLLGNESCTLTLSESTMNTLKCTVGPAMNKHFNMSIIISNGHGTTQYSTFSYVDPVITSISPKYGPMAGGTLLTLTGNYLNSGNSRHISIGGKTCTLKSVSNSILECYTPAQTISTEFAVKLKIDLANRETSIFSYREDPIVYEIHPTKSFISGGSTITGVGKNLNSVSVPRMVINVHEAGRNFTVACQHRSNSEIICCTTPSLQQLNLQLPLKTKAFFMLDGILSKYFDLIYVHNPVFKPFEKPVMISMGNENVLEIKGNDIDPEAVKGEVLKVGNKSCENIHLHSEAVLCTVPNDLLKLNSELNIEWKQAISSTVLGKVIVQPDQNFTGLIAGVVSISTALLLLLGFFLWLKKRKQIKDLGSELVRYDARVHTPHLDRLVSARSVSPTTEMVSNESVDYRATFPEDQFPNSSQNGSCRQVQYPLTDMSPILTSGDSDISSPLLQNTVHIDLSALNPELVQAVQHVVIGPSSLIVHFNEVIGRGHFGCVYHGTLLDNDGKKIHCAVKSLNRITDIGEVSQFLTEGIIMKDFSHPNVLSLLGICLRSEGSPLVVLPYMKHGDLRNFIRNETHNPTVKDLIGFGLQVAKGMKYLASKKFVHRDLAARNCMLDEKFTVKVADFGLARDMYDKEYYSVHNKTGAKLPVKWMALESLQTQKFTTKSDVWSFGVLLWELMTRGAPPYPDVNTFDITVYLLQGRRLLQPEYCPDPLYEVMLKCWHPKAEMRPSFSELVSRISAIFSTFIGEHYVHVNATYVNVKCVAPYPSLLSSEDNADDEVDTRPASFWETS

| IC50 (c-Met (h)) [nM] | IC50 (Axl (h)) [nM] | SMILES |
| --- | --- | --- |
| 21 | 7 | O=C(Nc1ccc(Oc2ccnc(NC(=O)C3CC3)c2)cn1)c1c2n(n(-c3ccccc3)c1=O)CCC2 [Ex. 14, N-(5-((2-(cyclopropanecarboxamido)pyridin-4-yl)oxy)pyridin-2-yl)-2-oxo-1-phenyl-2,4,5,6-tetrahydro-1H-pyrrolo[1,2-b]pyrazole-3-carboxamide] |
| 54 | 14 | CC(=O)Nc1cc(Oc2ccc(NC(=O)c3c4n(n(-c5ccccc5)c3=O)CCOC4)nc2)ccn1 [Ex. 12, N-(5-((2-acetamidopyridin-4-yl)oxy)pyridin-2-yl)-2-oxo-1-phenyl-2,4,6,7-tetrahydro-1H-pyrazolo[5,1-c][1,4]oxazine-3-carboxamide] |
| 41 | 5 | O=C(Nc1ccc(Oc2ccnc(NC(=O)C3CC3)c2)cc1)c1c2n(n(-c3ccccc3)c1=O)CCOC2 [Ex. 19, N-(4-((2-(cyclopropanecarboxamido)pyridin-4-yl)oxy)phenyl)-2-oxo-1-phenyl-2,4,6,7-tetrahydro-1H-pyrazolo[5,1-c][1,4]oxazine-3-carboxamide] |

Second part, the molecule before the results:

| SMILES | IC50 (c-Met (h)) [nM] | IC50 (Axl (h)) [nM] |
| --- | --- | --- |
| O=C(Nc1ccc(Oc2ccnc(NC(=O)C3CC3)c2)cc1)c1c2n(n(-c3ccccc3)c1=O)CCC2 [Ex. 2, N-(4-((2-(cyclopropanecarboxamido)pyridin-4-yl)oxy)phenyl)-2-oxo-1-phenyl-2,4,5,6-tetrahydro-1H-pyrrolo[1,2-b]pyrazole-3-carboxamide] | 26 |  |
| CC(=O)Nc1cc(Oc2ccc(NC(=O)c3c4n(n(-c5ccccc5)c3=O)CCC4)cc2)ccn1 [Ex. 3, N-(4-((2-acetamidopyridin-4-yl)oxy)phenyl)-2-oxo-1-phenyl-2,4,5,6-tetrahydro-1H-pyrrolo[1,2-b]pyrazole-3-carboxamide] | 100 |  |
